Data set [1] concerns the target Muscarinic acetylcholine receptor M3 (Homo sapiens, UniProt P20309). The settings on record: Compound concentration 10.0 uM.
For data set [2], the target named is Type-2 angiotensin II receptor (Homo sapiens) (UniProt P50052). Nature of the data set: Inhibition of Angiotensin AT2 at 10.0 µM in the Eurofins Panlabs Safety Screen. The settings on record: Compound concentration 10.0 uM.
The target in data set [3] is Sodium/potassium-transporting ATPase (Sus scrofa) (UniProt P05027+P05024+D2WKD8+D2WKD7+F1ST41). Briefly: Inhibition of ATPase, Na+/K+, Heart, Pig at 10.0 µM in the Eurofins Panlabs Safety Screen. It is filed as protein-complex assay. The settings on record: Compound concentration 10.0 uM.
Data set [4] deals with Sodium-dependent dopamine transporter (Homo sapiens, UniProt Q01959). Briefly: Inhibition of Transporter, Dopamine (DAT) at 10.0 µM in the Eurofins Panlabs Safety Screen. The settings on record: Compound concentration 10.0 uM.
Data set [5] addresses Sodium-dependent noradrenaline transporter (Homo sapiens) (UniProt P23975). The settings on record: Compound concentration 10.0 uM.
The target in data set [6] is T1, Muscarinic acetylcholine receptor M4 (Homo sapiens) (UniProt P08173).
T1 sequence (whole entry): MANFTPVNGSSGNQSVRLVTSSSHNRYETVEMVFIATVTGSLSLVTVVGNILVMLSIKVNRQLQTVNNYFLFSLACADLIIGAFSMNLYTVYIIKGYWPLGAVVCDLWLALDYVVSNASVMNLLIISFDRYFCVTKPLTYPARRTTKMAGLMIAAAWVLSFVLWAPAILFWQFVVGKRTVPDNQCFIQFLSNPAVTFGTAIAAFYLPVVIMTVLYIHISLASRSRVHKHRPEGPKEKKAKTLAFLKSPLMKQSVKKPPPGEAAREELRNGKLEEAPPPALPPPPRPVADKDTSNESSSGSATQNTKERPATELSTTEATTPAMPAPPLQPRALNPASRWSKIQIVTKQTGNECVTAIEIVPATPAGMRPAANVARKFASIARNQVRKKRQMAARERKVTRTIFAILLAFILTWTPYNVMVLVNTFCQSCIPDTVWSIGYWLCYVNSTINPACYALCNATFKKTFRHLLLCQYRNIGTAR
Nature of the data set: Inhibition of Muscarinic M4 at 10.0 µM in the Eurofins Panlabs Safety Screen. The settings on record: Compound concentration 10.0 uM.

Data set [7] addresses Monoamine oxidase A (MAO-A) (Homo sapiens, UniProt P21397). Nature of the data set: Inhibition of Monoamine Oxidase MAO-A at 10.0 µM in the Eurofins Panlabs Safety Screen. The settings on record: compound concentration 10 uM.
Data set [8] deals with Thromboxane-A synthase (Homo sapiens) (UniProt P24557). Briefly: Inhibition of Thromboxane Synthase at 10.0 µM in the Eurofins Panlabs Safety Screen. The settings on record: Compound concentration 10.0 uM.
Data set [9] concerns the target 5-hydroxytryptamine receptor 2A (Homo sapiens) (UniProt P28223). The settings on record: Compound concentration 10.0 uM.
Data set [10] has as its target Motilin receptor (Homo sapiens) (UniProt O43193). Nature of the data set: Inhibition of Motilin at 10.0 µM in the Eurofins Panlabs Safety Screen. The settings on record: Compound concentration 10.0 uM.
In data set [11] the target is T2, 5-hydroxytryptamine receptor 1A (Homo sapiens) (UniProt P08908).
T2 sequence (whole entry): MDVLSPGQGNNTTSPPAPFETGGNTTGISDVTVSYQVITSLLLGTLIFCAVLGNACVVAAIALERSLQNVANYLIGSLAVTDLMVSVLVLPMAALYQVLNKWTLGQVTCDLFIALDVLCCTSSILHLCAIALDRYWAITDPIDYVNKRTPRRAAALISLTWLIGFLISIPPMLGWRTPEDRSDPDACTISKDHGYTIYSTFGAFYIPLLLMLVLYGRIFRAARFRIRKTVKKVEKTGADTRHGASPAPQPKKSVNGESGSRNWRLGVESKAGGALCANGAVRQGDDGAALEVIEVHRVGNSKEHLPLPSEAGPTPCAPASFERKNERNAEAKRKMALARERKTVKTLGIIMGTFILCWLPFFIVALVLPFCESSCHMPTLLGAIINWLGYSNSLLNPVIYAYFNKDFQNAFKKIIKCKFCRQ
Nature of the data set: Inhibition of Serotonin (5-Hydroxytryptamine) 5-HT1A at 10.0 µM in the Eurofins Panlabs Safety Screen. The settings on record: Compound concentration 10.0 uM.

The target in data set [12] is Monoamine oxidase B (MAO-B) (Homo sapiens, UniProt P27338). Nature of the data set: Inhibition of Monoamine Oxidase MAO-B at 10.0 µM in the Eurofins Panlabs Safety Screen. The settings on record: compound concentration 10 uM.
The target of data set [13] is T3, Muscarinic acetylcholine receptor M1 (Homo sapiens) (UniProt P11229).
T3 sequence (whole entry): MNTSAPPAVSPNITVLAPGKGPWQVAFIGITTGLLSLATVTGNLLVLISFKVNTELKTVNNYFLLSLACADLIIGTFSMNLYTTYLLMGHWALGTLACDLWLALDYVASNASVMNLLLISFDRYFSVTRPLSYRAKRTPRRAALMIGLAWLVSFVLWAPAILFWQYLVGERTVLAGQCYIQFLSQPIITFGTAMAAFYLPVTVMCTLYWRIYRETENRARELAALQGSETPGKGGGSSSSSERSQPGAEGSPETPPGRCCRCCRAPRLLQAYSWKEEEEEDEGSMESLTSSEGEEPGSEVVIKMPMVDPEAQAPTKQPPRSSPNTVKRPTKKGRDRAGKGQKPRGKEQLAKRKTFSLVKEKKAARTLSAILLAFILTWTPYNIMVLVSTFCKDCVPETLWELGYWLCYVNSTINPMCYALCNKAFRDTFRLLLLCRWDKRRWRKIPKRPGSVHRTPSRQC
Nature of the data set: Inhibition of Muscarinic M1 at 10.0 µM in the Eurofins Panlabs Safety Screen. The settings on record: Compound concentration 10.0 uM.

Data set [14] deals with Leukotriene C4 synthase (Cavia porcellus) (UniProt A6XA80). Briefly: Inhibition of Leukotriene LTC4 Synthase at 10.0 µM in the Eurofins Panlabs Safety Screen. The settings on record: Compound concentration 10.0 uM.
Data set [15] concerns the target GABA-A receptor; anion channel (Rattus norvegicus) (UniProt O09028+P15431+P18506+P18508+P19969+P20236+P23574+P23576+P28471+P28473+P30191+P62813+P63079+P63138+Q91ZM7+Q9ES14). Nature of the data set: Inhibition of GABAA, Flunitrazepam, Central at 10.0 µM in the Eurofins Panlabs Safety Screen. The settings on record: Compound concentration 10.0 uM. It is filed as protein-complex assay.

For data set [16], the target named is Insulin receptor (Homo sapiens) (UniProt P06213). Nature of the data set: Inhibition of Insulin at 10.0 µM in the Eurofins Panlabs Safety Screen. The settings on record: Rattus norvegicus; Compound concentration 10.0 uM.
Sequence of Insulin receptor (Homo sapiens) (P06213 28-758 limits assumed): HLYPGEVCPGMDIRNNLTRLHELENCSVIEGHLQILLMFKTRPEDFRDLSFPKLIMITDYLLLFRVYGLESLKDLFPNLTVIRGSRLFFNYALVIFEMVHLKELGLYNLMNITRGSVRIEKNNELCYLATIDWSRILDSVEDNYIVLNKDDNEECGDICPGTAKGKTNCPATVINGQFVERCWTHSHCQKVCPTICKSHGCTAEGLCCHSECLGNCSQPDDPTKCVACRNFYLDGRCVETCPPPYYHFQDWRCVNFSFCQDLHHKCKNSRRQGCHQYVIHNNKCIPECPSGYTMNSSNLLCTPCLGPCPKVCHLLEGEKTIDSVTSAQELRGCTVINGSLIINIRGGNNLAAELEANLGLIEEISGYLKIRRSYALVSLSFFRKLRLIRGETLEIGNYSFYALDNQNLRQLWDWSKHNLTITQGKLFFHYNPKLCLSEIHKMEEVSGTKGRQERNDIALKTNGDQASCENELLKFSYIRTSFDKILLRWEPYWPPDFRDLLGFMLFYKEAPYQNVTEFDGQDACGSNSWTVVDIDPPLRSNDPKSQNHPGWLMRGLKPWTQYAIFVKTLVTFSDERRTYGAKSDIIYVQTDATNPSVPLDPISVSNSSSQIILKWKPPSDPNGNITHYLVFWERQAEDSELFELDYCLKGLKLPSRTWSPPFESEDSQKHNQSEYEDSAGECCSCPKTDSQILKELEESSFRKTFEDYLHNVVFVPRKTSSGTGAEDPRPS
Sequence of Insulin receptor (Homo sapiens) (P06213 763-1382 limits assumed): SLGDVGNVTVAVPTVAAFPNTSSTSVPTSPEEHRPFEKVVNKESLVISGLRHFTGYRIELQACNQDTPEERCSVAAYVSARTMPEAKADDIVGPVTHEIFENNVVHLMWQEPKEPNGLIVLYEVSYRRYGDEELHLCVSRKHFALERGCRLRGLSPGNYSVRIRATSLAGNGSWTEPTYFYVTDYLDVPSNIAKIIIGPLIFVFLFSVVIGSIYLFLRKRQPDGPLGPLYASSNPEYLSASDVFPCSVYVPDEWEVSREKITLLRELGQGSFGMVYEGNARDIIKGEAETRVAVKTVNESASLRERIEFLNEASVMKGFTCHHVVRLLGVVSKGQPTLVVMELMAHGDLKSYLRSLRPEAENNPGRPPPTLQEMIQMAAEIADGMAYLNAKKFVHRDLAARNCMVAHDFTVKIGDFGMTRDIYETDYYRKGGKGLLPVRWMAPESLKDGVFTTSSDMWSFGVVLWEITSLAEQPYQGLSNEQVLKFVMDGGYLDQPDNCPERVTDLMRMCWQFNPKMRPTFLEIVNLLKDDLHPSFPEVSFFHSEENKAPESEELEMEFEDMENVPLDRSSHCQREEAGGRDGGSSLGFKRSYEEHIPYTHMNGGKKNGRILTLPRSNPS
For data set [17], the target named is Sodium-dependent noradrenaline transporter (Homo sapiens) (UniProt P23975). Nature of the data set: Inhibition of Transporter, Norepinephrine (NET) at 10.0 µM in the Eurofins Panlabs Safety Screen. The settings on record: Compound concentration 10.0 uM.
Sequence of Sodium-dependent noradrenaline transporter (Homo sapiens) (P23975 whole entry): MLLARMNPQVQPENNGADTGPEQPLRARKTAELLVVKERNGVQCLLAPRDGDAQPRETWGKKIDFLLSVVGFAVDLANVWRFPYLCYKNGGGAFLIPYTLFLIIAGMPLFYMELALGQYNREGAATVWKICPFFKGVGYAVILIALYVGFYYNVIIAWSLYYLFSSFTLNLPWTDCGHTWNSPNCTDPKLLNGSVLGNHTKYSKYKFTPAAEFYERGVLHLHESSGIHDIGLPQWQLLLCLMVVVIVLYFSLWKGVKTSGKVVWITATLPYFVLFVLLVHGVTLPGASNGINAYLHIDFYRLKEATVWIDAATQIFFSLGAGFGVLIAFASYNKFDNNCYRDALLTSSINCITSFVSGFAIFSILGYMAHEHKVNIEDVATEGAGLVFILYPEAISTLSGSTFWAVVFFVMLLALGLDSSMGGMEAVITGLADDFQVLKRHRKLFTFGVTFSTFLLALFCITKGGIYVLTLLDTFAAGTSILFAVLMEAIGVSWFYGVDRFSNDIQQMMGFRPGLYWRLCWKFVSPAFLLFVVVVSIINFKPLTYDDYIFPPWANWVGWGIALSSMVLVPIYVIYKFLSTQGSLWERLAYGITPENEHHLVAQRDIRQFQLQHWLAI
Data set [18] deals with Sodium-dependent serotonin transporter (Homo sapiens) (UniProt P31645). The settings on record: Compound concentration 10.0 uM.
Sequence of Sodium-dependent serotonin transporter (Homo sapiens) (P31645 whole entry, looked up): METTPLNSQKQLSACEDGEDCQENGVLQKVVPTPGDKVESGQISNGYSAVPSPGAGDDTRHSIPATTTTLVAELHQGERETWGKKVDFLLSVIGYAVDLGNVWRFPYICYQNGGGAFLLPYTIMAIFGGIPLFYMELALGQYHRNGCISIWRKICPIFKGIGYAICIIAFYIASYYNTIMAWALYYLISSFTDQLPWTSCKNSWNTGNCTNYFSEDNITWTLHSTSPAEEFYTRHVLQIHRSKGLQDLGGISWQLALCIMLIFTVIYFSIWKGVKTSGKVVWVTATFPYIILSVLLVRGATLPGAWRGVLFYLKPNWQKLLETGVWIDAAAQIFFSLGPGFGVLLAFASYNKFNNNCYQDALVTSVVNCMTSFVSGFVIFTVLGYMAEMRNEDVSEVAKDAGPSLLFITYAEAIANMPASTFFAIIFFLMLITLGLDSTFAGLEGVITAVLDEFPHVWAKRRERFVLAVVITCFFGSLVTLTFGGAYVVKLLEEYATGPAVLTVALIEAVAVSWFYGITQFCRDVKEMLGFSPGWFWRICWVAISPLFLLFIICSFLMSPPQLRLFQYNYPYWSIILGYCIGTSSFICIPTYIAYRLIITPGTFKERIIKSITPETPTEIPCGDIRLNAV
The target in data set [19] is Cannabinoid receptor 2 (Homo sapiens) (UniProt P34972). Nature of the data set: Inhibition of Cannabinoid CB2 at 10.0 µM in the Eurofins Panlabs Safety Screen. The settings on record: Compound concentration 10.0 uM.
The target of data set [20] is Beta-3 adrenergic receptor (Homo sapiens) (UniProt P13945). Nature of the data set: Inhibition of Adrenergic beta3 at 10.0 µM in the Eurofins Panlabs Safety Screen. The settings on record: Compound concentration 10.0 uM.
In data set [21] the target is Adenosine receptor A3 (Homo sapiens) (UniProt P0DMS8). Briefly: Inhibition of Adenosine A3 at 10.0 µM in the Eurofins Panlabs Safety Screen. The settings on record: Compound concentration 10.0 uM.

SMILES strings stand for the structures.

Sequence of 5-hydroxytryptamine receptor 2A (Homo sapiens) (P28223 whole entry): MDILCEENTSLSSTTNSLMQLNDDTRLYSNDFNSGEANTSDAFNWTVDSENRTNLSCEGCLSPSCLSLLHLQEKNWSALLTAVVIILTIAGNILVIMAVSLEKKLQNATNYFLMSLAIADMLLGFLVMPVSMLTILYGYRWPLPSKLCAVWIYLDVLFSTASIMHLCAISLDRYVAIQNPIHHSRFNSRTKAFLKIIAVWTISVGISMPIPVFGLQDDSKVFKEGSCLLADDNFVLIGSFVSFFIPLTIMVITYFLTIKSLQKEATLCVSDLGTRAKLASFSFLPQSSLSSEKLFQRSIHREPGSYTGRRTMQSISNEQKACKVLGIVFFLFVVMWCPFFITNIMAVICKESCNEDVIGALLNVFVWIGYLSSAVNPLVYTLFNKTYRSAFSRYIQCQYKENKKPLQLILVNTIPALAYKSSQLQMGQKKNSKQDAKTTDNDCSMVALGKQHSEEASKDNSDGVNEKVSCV
Sequence of Muscarinic acetylcholine receptor M3 (P20309 whole entry, looked up): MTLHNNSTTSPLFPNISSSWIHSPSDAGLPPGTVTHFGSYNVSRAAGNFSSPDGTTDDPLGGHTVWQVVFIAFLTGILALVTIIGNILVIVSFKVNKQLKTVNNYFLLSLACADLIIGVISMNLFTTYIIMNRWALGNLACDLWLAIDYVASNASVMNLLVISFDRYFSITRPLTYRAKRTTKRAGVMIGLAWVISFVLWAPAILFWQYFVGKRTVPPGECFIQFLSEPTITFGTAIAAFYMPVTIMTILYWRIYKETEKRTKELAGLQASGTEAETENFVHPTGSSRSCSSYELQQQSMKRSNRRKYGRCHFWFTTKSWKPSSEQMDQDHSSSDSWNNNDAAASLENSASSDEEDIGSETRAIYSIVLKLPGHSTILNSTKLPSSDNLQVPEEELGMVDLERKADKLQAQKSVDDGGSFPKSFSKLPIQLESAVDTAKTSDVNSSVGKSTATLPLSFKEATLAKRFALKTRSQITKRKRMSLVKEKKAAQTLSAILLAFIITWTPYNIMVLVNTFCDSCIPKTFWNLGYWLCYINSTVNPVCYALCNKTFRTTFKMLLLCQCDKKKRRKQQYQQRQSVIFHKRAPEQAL
Sequence of Type-2 angiotensin II receptor (Homo sapiens) (P50052 whole entry): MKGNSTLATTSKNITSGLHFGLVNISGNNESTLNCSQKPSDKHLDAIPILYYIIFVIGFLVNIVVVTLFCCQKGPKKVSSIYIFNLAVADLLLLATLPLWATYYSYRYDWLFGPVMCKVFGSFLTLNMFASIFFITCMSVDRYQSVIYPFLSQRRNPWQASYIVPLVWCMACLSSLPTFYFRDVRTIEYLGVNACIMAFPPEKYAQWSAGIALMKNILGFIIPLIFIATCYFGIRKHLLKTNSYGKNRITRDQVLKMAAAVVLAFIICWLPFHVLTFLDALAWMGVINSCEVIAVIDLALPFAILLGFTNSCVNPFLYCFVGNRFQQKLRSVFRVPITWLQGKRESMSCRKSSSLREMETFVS
Sequence of Monoamine oxidase A (MAO-A) (P21397 whole entry): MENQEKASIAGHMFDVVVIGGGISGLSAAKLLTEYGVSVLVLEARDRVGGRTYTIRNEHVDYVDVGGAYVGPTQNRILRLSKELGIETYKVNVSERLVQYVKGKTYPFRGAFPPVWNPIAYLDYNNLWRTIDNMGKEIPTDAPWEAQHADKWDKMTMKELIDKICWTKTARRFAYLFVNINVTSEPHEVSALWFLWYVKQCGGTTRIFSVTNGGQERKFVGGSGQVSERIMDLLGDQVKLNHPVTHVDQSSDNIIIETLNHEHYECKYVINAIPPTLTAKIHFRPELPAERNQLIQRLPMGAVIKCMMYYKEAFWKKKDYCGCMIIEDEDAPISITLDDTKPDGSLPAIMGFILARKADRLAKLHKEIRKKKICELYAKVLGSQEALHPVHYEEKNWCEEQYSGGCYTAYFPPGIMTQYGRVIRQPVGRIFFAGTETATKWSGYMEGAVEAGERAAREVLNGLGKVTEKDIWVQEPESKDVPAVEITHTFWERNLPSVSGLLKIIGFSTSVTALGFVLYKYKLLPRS
Sequence of Motilin receptor (Homo sapiens) (O43193 whole entry): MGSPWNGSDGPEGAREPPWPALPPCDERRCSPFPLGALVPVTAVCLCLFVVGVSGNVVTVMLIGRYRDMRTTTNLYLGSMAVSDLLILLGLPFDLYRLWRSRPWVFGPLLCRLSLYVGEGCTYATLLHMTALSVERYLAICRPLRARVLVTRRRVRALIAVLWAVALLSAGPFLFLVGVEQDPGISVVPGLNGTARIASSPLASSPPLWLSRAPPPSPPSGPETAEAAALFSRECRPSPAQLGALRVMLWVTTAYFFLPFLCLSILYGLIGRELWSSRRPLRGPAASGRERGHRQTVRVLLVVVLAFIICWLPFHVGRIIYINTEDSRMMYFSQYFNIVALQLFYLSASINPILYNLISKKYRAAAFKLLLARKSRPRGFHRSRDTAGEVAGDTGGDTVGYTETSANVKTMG

In general, inhibition refers to the relative decrease from the control value, in per cent. With `O=C1CCC(N2Cc3cc(C4CCN(C(=O)CCCCCN5CCC(c6ccc(Oc7nn8cnnc8c8c7CCCC8)cc6)CC5)CC4)ccc3C2=O)C(=O)N1` (configuration not stated), the inhibition in [1] was 55%; in data set [2], 13%; in [3] it was -7%; in data set [4] it was 38%; in [5] it was 11.7%; in [6], 70%. Further, the inhibition in data set [8] is 10%; in [9], 18.6%; in [10], 6%; in [11] it was 25%; in data set [13], 53%; in [14] it was 2%. Besides, the inhibition in data set [15] is 10%; in data set [16], -7%; in [17], 28%; in data set [18], 45.8%; in data set [19], 14%; in data set [20], 16%. In addition, the inhibition in data set [21] turned out to be 16%. The results for the inhibition at 10 µM in data set [7] and in data set [12] were 16% and 34%, respectively.

As to `O=C1NCCCC1N1Cc2cc(C3CCN(C(=O)CCCCCN4CCC(c5ccc(Oc6nn7cnnc7c7c6CCCC7)cc5)CC4)CC3)ccc2C1=O` (configuration not stated), the inhibition in data set [1] was 51.5%; in [2], 17%; in data set [3], 1%; in data set [4], 39%; in data set [5], 4.02%; in [6] it was 57%. Besides, the inhibition is 23% in data set [8]; 21% in data set [9]; 10% in [10]; 6% in data set [11]; 53% in data set [13]; 15% in [14]. Also, the inhibition in data set [15] is 15%; in data set [16], -5%; in data set [17], 15%; in data set [18], 9.58%; in data set [19] it was 12%; in data set [20], 13%. Also, in data set [21], the inhibition was 21%. Besides, the results for the inhibition at 10 µM in data set [7] and in data set [12] were 18% and 30%, respectively.

The record behind these values is ChEMBL document CHEMBL5463725, “Data for DCP probe BAY-277” (2023).
